Assay results taken from patent US8815535B2, “Disk diffusion assay for oritavancin” (The Medicines Company, priority 2011, dated 2014).
“And” between values parts separate entries of the source, which are not always exact repeats. Equal entries are not always repeated. Where two headings read alike, the source gives them in different places.

Tested on: hVISA NRS2
Assay: Disk diffusion assay (zone of inhibition)
Format: cell-based, Staphylococcus aureus
Settings: for zone of inhibition at 90 µg/disc: 90 μg oritavancin; for zone of inhibition at 180 µg/disc: 180 μg oritavancin; for zone of inhibition at 12.5 µg/disc: 12.5 μg in 4% P80/Span 80 (1:1); for zone of inhibition at 200 µg/disc: 200 μg in 4% P80/Span 80 (1:1)
Source text: The study was designed to identify conditions that improve oritavancin diffusion in agar and consequently yield a zone diameter ≧15 mm for the CLSI quality control strain MSSA ATCC 25923. Excipients that increased the disk diffusion of oritavancin in agar relative to disks containing only oritavancin were identified and selected for further study. […] A prediffusion step at room temperature was introduced to maximize oritavancin diffusion prior to initiation of bacterial growth. In this step, the antimicrobial disks were placed on agar plates seeded with a bacterial isolate and incubated at room temperature for 3 hours. Plates were then incubated overnight at 37° C. Zone diameters around the disks in which bacterial growth was inhibited were measured with a ruler and reported in millimeters.
Ethanol-sterilized Whatman paper disks (6 mm diameter) were allowed to dry then impregnated with 20 microliters of oritavancin solution containing total amounts ranging from 90 to 360 micrograms. Disks were allowed to dry at room temperature for various times prior to use.
Bacterial suspensions were prepared and adjusted to an optical density of 0.1 at 600 nm. Standard cation-adjusted Mueller Hinton agar plates (90 mm diameter) were seeded with bacterial suspensions by initially swabbing the center of plate then moving outward towards the edge. The plate was swabbed a second time, perpendicular to the orientation of the first swab. To assess the impact of prediffusion on diameter of inhibition zones, two disks were immediately placed on one half of the plate and the plate was incubated for 3 hours at room temperature. After 3 hours, two additional disks were placed on the other half of the plate then the plate was incubated overnight at 37° C. Zone diameters were measured with a ruler and reported in millimeters.
Oritavancin powder was dissolved in freshly-prepared solutions of the indicated excipients at concentrations of 0.625, 1.25, 2.5, 5, and 10 mg/ml (adjusted for potency based on lot 875561L00 purity of 83.1%) by vortexing for a minimum of 5 minutes. Oritavancin solutions in the various excipients, while not visually clear, were free from any apparent particulates as assessed visually. Sterile Oxoid blank disks were impregnated with 20 μl of these oritavancin solutions, resulting in oritavancin disk loads ranging from 12.5 to 200 μg. Unless indicated otherwise, disks were allowed to dry overnight at room temperature prior to use.
Bacterial suspensions from isolated colonies on overnight cation-adjusted Mueller Hinton agar plates were prepared in sterile saline and adjusted to an optical density of 0.1 at 600 nm Standard cation-adjusted Mueller Hinton agar plates (90 mm diameter) were seeded with bacterial suspensions by initially swabbing the center of plate then moving outward. Swabbing was continued at a right angle and then at an oblique angle to the first and second swabs. Disks were placed upon the seeded plates with sterile forceps. Plates were then incubated overnight at 37° C. and inhibition zone diameters were measured with a ruler and reported in millimeters.

[1] = Staphylococcus aureus, NRS2, 192 h, NRS2, 2.5% P80, disks stored 8 days, prediffusion, read-out: Average zone diameter
[2] = Staphylococcus aureus, NRS2, 336 h, NRS2, 5% P80, disks stored 14 days, prediffusion, read-out: Average zone diameter
[3] = Staphylococcus aureus, NRS2, 336 h, NRS2, 10% P80, disks stored 14 days, prediffusion, read-out: Average zone diameter
[4] = Staphylococcus aureus, NRS2, NRS2, calcium alginate swab, dried overnight, read-out: Inhibition zone diameter
[5] = Staphylococcus aureus, NRS2, NRS2, cotton swab, dried overnight, estimate of diameter

CN[C@H](CC(C)C)C(=O)N[C@H]1C(=O)N[C@@H](CC(N)=O)C(=O)N[C@H]2C(=O)N[C@H]3C(=O)N[C@H](C(=O)N[C@H](C(=O)O)c4cc(O)cc(O)c4-c4cc3ccc4O)[C@H](O[C@H]3C[C@](C)(N)[C@@H](O)[C@H](C)O3)c3ccc(c(Cl)c3)Oc3cc2cc(c3O[C@@H]2O[C@H](CO)[C@@H](O)[C@H](O)[C@H]2O[C@H]2C[C@](C)(NCc3ccc(-c4ccc(Cl)cc4)cc3)[C@@H](O)[C@H](C)O2)Oc2ccc(cc2Cl)[C@H]1O [oritavancin, N-(4-(4-chlorophenyl)benzyl)A82846B]
Inhibition zone diameter (NRS2, 25 μg (20 μl of 1.25 mg/ml) in 4% P80/Span 80 (1:1), calcium alginate swab, dried overnight): 10 mm and 12, 12 mm
zone of inhibition at 360 µg/disc (Staphylococcus aureus, NRS2, 3 h, NRS2, 360 μg oritavancin, excipient 10% HPCD, disks made same day, 3 h prediffusion, average of 2 disks, read-out: Average zone diameter): 17.5 mm
zone of inhibition at 90 µg/disc [1]: 14 mm
zone of inhibition at 180 µg/disc [1]: 14.8 mm
zone of inhibition at 360 µg/disc (Staphylococcus aureus, NRS2, 192 h, NRS2, 360 μg in 5% P80, Experiment 2, disks stored 8 days, no prediffusion, read-out: Zone diameter (mm ± SD)): 14.3 ± 0.4 mm
zone of inhibition at 360 µg/disc (Staphylococcus aureus, NRS2, 192 h, NRS2, 360 μg oritavancin, 2.5% P80, disks stored 8 days, prediffusion, read-out: Average zone diameter): 15 mm
zone of inhibition at 90 µg/disc [2]: 15 mm
zone of inhibition at 90 µg/disc [3]: 15.8 mm
zone of inhibition at 180 µg/disc [2]: 16 mm
zone of inhibition at 180 µg/disc [3]: 16 mm
zone of inhibition at 360 µg/disc (Staphylococcus aureus, NRS2, 336 h, NRS2, 360 μg in 5% P80, Experiment 1, disks stored 14 days, no prediffusion, read-out: Zone diameter (mm ± SD)): 15.5 mm
zone of inhibition at 360 µg/disc (Staphylococcus aureus, NRS2, 336 h, NRS2, 360 μg oritavancin, 5% P80, disks stored 14 days, prediffusion, read-out: Average zone diameter): 18 mm
zone of inhibition at 360 µg/disc (Staphylococcus aureus, NRS2, 336 h, NRS2, 360 μg oritavancin, 10% P80, disks stored 14 days, prediffusion, read-out: Average zone diameter): 16.5 mm
zone of inhibition at 12.5 µg/disc [4]: 12.5 mm
zone of inhibition at 12.5 µg/disc [5]: 13 mm
zone of inhibition at 1250 µg/mL (Staphylococcus aureus, NRS2, NRS2, 25 μg (20 μl of 1.25 mg/ml) in 4% P80/Span 80 (1:1), calcium alginate swab, dried overnight, read-out: Inhibition zone diameter): 16 mm
zone of inhibition at 25 µg/disc (Staphylococcus aureus, NRS2, NRS2, 25 μg in 4% P80/Span 80 (1:1), cotton swab, dried overnight, estimate of diameter): 17 mm
zone of inhibition at 50 µg/disc (Staphylococcus aureus, NRS2, NRS2, 50 μg in 4% P80/Span 80 (1:1), calcium alginate swab, dried overnight, read-out: Inhibition zone diameter): 15 mm
zone of inhibition at 50 µg/disc (Staphylococcus aureus, NRS2, NRS2, 50 μg in 4% P80/Span 80 (1:1), cotton swab, dried overnight, estimate of diameter): 17 mm
zone of inhibition at 50 µg/disc (Staphylococcus aureus, NRS2, NRS2, 50 μg, 4% P80/Span 80 ratio 50:50, dried overnight, estimate of diameter): 16 mm
zone of inhibition at 50 µg/disc (Staphylococcus aureus, NRS2, NRS2, 50 μg, 4% P80/Span 80 ratio 60:40, dried overnight, estimate of diameter): 15 mm
zone of inhibition at 50 µg/disc (Staphylococcus aureus, NRS2, NRS2, 50 μg, 4% P80/Span 80 ratio 70:30, dried overnight, estimate of diameter): 14 mm
zone of inhibition at 50 µg/disc (Staphylococcus aureus, NRS2, NRS2, 50 μg, 4% P80/Span 80 ratio 80:20, dried overnight, estimate of diameter): 14 mm
zone of inhibition at 50 µg/disc (Staphylococcus aureus, NRS2, NRS2, 50 μg, 4% P80/Span 80 ratio 90:10, dried overnight, estimate of diameter): 12 mm
zone of inhibition at 100 µg/disc (Staphylococcus aureus, NRS2, NRS2, 100 μg in 4% P80/Span 80 (1:1), calcium alginate swab, dried overnight, read-out: Inhibition zone diameter): 11 mm
zone of inhibition at 200 µg/disc [4]: 10 mm
zone of inhibition at 200 µg/disc [5]: 13 mm
zone of inhibition at 360 µg/disc (Staphylococcus aureus, NRS2, NRS2, 360 μg in 5% P80, Average of experiments, no prediffusion, read-out: Zone diameter (mm ± SD)): 14.9 ± 0.8 mm
zone of inhibition at 360 µg/disc (Staphylococcus aureus, NRS2, NRS2, 360 μg in 5% P80, Average of experiments, prediffusion, read-out: Zone diameter (mm ± SD)): 17.3 ± 0.3 mm
zone of inhibition at 360 µg/disc (Staphylococcus aureus, NRS2, NRS2, 360 μg in 5% P80, Experiment 1, disks stored 14 days, 3 h prediffusion at room temperature, read-out: Zone diameter (mm ± SD)): 17.5 mm
zone of inhibition at 360 µg/disc (Staphylococcus aureus, NRS2, NRS2, 360 μg in 5% P80, Experiment 2, disks stored 8 days, 3 h prediffusion at room temperature, read-out: Zone diameter (mm ± SD)): 17 mm
zone of inhibition at 360 µg/disc (Staphylococcus aureus, NRS2, NRS2, 360 μg oritavancin, excipient 5% P80, disks stored 5 days at room temperature, 3 h prediffusion, average of 2 disks, read-out: Average zone diameter): 17.8 mm
zone of inhibition at 1250 µg/mL (Staphylococcus aureus, NRS2, NRS2, 20 μl of 1.25 mg/ml oritavancin in 1% poly(ethylene glycol) sorbitol hexaoleate, read-out: Inhibition zone diameter): 9 mm
zone of inhibition at 1250 µg/mL (Staphylococcus aureus, NRS2, NRS2, 20 μl of 1.25 mg/ml oritavancin in 5% Brij 30, read-out: Inhibition zone diameter): 8 mm
zone of inhibition at 1250 µg/mL (Staphylococcus aureus, NRS2, NRS2, 20 μl of 1.25 mg/ml oritavancin in 5% Merpol SE, read-out: Inhibition zone diameter): 11 mm
